Experimental data reported in US11466023B2, “Combination of a Mcl-1 inhibitor and a standard of care treatment for hematologic cancers, uses and pharmaceutical compositions thereof” (LES LABORATOIRES SERVIER, priority 2017, dated 2022).
Where two headings read alike, the source gives them in different places.

What was measured:
MV4; 11 AML cell line = assay: Single agent cell viability (CellTiterGlo); format: cell-based; details: Homo sapiens, 72 h; MV4; 11, single agent, 3 days incubation, CellTiterGlo; read-out: IC50
Experimental: (§1) Cell lines were cultured at 37° C. in a humidified atmosphere containing 5% CO2 and expanded in T-150 flasks. […] In order to analyse the activity of the compounds as single agents, cells were seeded and treated with nine 2-fold serial dilutions of each compound dispensed individually directly into the cell assay plates. […] All the experiments were performed in triplicates. Luminescence was quantified on a multipurpose plate reader. Single agent IC50s were calculated using standard four-parametric curve fitting.

Nomo-1 AML cell line = assay: Single agent cell viability (CellTiterGlo); format: cell-based; details: Homo sapiens, 72 h; Nomo-1, single agent, 3 days incubation, CellTiterGlo; read-out: IC50
Experimental: as §1

KG1 AML cell line = assay: Single agent cell viability (CellTiterGlo); format: cell-based; details: 72 h; KG1, single agent, 3 days incubation, CellTiterGlo; read-out: IC50
Experimental: as §1

HL-60 AML cell line = assay: Single agent cell viability (CellTiterGlo); format: cell-based; details: Homo sapiens, 72 h; HL-60, single agent, 3 days incubation, CellTiterGlo; read-out: IC50
Experimental: as §1

KG1a AML cell line = assay: Single agent cell viability (CellTiterGlo); format: cell-based; details: Homo sapiens, KG-1a, 72 h; KG1a, single agent, 3 days incubation, CellTiterGlo; read-out: IC50
Experimental: as §1

MOLM-13 AML cell line = assay: Single agent cell viability (CellTiterGlo); format: cell-based; details: Homo sapiens, 72 h; MOLM-13, single agent, 3 days incubation, CellTiterGlo; read-out: IC50
Experimental: as §1

OCI-AML3 AML cell line = assay: Single agent cell viability (CellTiterGlo); format: cell-based; details: Homo sapiens, OCI-AML-3, 72 h; OCI-AML3, single agent, 3 days incubation, CellTiterGlo; read-out: IC50
Experimental: as §1

EOL-1 AML cell line = assay: Single agent cell viability (CellTiterGlo); format: cell-based; details: Homo sapiens, EOL1, 72 h; EOL-1, single agent, 3 days incubation, CellTiterGlo; read-out: IC50
Experimental: as §1

THP-1 AML cell line = assay: Single agent cell viability (CellTiterGlo); format: cell-based; details: Homo sapiens, 72 h; THP-1, single agent, 3 days incubation, CellTiterGlo; read-out: IC50
Experimental: as §1

GDM-1 AML cell line = assay: Single agent cell viability (CellTiterGlo); format: cell-based; details: Homo sapiens, 72 h; GDM-1, single agent, 3 days incubation, CellTiterGlo; read-out: IC50
Experimental: as §1

PL-21 AML cell line = assay: Single agent cell viability (CellTiterGlo); format: cell-based; details: 72 h; PL-21, single agent, 3 days incubation, CellTiterGlo; read-out: IC50
Experimental: as §1

Kasumi-1 AML cell line = assay: Single agent cell viability (CellTiterGlo); format: cell-based; details: Homo sapiens, 72 h; Kasumi-1, single agent, 3 days incubation, CellTiterGlo; read-out: IC50
Experimental: as §1

ML-2 AML cell line = assay: Single agent cell viability (CellTiterGlo); format: cell-based; details: 72 h; ML-2, single agent, 3 days incubation, CellTiterGlo; read-out: IC50
Experimental: as §1

[1] = system: normal human CD34+ progenitor cells; details: 10 nM
primary AML samples = primary AML samples (leukemic progenitor cells), 10 nM
[2] = system: mononuclear cells from ALL patient samples; assay: Cell viability assay (sytox blue flow cytometry) in primary ALL samples; format: cell-based; details: Homo sapiens, 48 h, combination at 1:1 ratio, read-out: 50% lethal concentration (LC50)
Experimental: Bone marrow or peripheral blood samples from patients with ALL were collected after informed consent in accordance with guidelines approved by The Alfred Hospital Human research ethics committee. Mononuclear cells were isolated by Ficoll-Paque (GE Healthcare, Australia) density-gradient centrifugation, followed by red cell depletion in ammonium chloride (NH4Cl) lysis buffer at 37° C. for 10 minutes. Cells were then re-suspended in phosphate-buffered saline containing 2% Fetal Bovine serum (Sigma, Australia). Mononuclear cells were then suspended in RPMI-1640 (GIBCO, Australia) medium containing penicillin and streptomycin (GIBCO) and heat inactivated fetal bovine serum 15% (Sigma).
Freshly purified mononuclear cells from ALL patient samples were adjusted to a concentration of 2.5×10^5/ml and 100 μL of cells aliquoted per well into 96 well plates (Sigma). Cells were then treated with indicated drugs over a […] concentration range from 1 nM to 10 μM for 48 hours. For combinations assays, drugs were added at a 1:1 ratio from 1 nM to 10 μM and incubated at 37° C. 5% CO2. Cells were then stained with sytox blue nucleic acid stain (Invitrogen, Australia) and fluorescence measured by flow cytometric analysis using the LSR-II Fortessa (Becton Dickinson, Australia). FACSDiva software was used for data collection, and FlowJo software for analysis. Blast cells were gated using forward and side scatter properties. Viable cells excluding sytox blue were determined at 6 concentrations for each drug and the 50% lethal concentration (LC50, in μM) determined.

Structure (SMILES): Nc1ccn([C@@H]2O[C@H](CO)[C@@H](O)[C@@H]2O)c(=O)n1 [Cytarabine, cytarabine]
- IC50 (MV4; 11 AML cell line): 140 nM
- IC50 (Nomo-1 AML cell line): 990 nM
- IC50 (KG1 AML cell line): 170 nM
- IC50 (HL-60 AML cell line): 740 nM
- IC50 (KG1a AML cell line): 240 nM
- IC50 (MOLM-13 AML cell line): 190 nM
- IC50 (OCI-AML3 AML cell line): > 2000 nM
- IC50 (EOL-1 AML cell line): 90 nM
- IC50 (THP-1 AML cell line): > 2000 nM
- IC50 (GDM-1 AML cell line): 30 nM
- IC50 (PL-21 AML cell line): 100 nM
- IC50 (Kasumi-1 AML cell line): 1020 nM
- IC50 (ML-2 AML cell line): 30 nM
- clonogenic growth [1]: toxic
- clonogenic growth (primary AML samples): toxic
- CC50 ([2]; ALL patient sample 01-046-2018, 48 hours): > 100000 nM
- CC50 ([2]; ALL patient sample AH6031524, 48 hours): 51600 nM
- CC50 ([2]; ALL patient sample AH6184311, 48 hours): 88000 nM
- CC50 ([2]; ALL patient sample AH6196680, 48 hours): > 100000 nM
- CC50 ([2]; ALL patient sample AH6198549, 48 hours): 10600 nM
- CC50 ([2]; ALL patient sample AH6258921, 48 hours): > 100000 nM
- CC50 ([2]; ALL patient sample AH7008157, 48 hours): > 100000 nM
- CC50 ([2]; ALL patient sample AH7024700, 48 hours): 35900 nM
- CC50 ([2]; ALL patient sample AH7104727, 48 hours): > 100000 nM
- CC50 ([2]; ALL patient sample TB 10-05-02, 48 hours): > 100000 nM
- CC50 ([2]; ALL patient sample TB 11-08-06, 48 hours): > 100000 nM
- CC50 ([2]; ALL patient sample TB 15-06-05, 48 hours): > 100000 nM
- CC50 ([2]; ALL patient sample TB 17-06-18, 48 hours): > 100000 nM
- CC50 ([2]; ALL patient sample TB120803, 48 hours): > 100000 nM
- CC50 ([2]; ALL patient sample TB151005, 48 hours): > 100000 nM
